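Tested at 5 concentrations; 48 h exposure; 96-well plates; endpoints linearly interpolated, else capped at highest concentration. GI50 is the concentration that inhibits growth by half. TGI: total growth inhibition.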
How the values were obtained:
Experiment in all cases: DTP human tumour cell line panel, 48 h
786-0 renal = test system: 786-0 renal
A498 renal = test system: A498 renal
A549 NSCLC = test system: A549 NSCLC
ACHN renal = test system: ACHN renal
BT-549 breast = test system: BT-549 breast
CAKI-1 renal = test system: CAKI-1 renal
CCRF-CEM leukemia = test system: CCRF-CEM leukemia
COLO 205 colon = test system: COLO 205 colon
DU-145 prostate = test system: DU-145 prostate
EKVX NSCLC = test system: EKVX NSCLC
HCC-2998 colon = test system: HCC-2998 colon
HCT-116 colon = test system: HCT-116 colon
HCT-15 colon = test system: HCT-15 colon
HL-60(TB) leukemia = test system: HL-60(TB) leukemia
HOP-62 NSCLC = test system: HOP-62 NSCLC
HOP-92 NSCLC = test system: HOP-92 NSCLC
HS 578T breast = test system: HS 578T breast
HT29 colon = test system: HT29 colon
IGROV1 ovarian = test system: IGROV1 ovarian
K-562 leukemia = test system: K-562 leukemia
KM12 colon = test system: KM12 colon
LOX IMVI melanoma = test system: LOX IMVI melanoma
M14 melanoma = test system: M14 melanoma
MALME-3M melanoma = test system: MALME-3M melanoma
MCF7 breast = test system: MCF7 breast
MDA-MB-231 breast = test system: MDA-MB-231 breast
MDA-MB-435 = test system: MDA-MB-435
MOLT-4 leukemia = test system: MOLT-4 leukemia
NCI-H226 lung = test system: NCI-H226 lung
NCI-H460 lung = test system: NCI-H460 lung
NCI-H522 lung = test system: NCI-H522 lung
NCI/ADR-RES ovarian = test system: NCI/ADR-RES ovarian
OVCAR-3 ovarian = test system: OVCAR-3 ovarian
OVCAR-4 ovarian = test system: OVCAR-4 ovarian
OVCAR-5 ovarian = test system: OVCAR-5 ovarian
OVCAR-8 ovarian = test system: OVCAR-8 ovarian
PC-3 prostate = test system: PC-3 prostate
RPMI-8226 leukemia = test system: RPMI-8226 leukemia
RXF 393 renal = test system: RXF 393 renal
SF-268 CNS = test system: SF-268 CNS
SF-295 CNS = test system: SF-295 CNS
SF-539 CNS = test system: SF-539 CNS
SK-MEL-2 melanoma = test system: SK-MEL-2 melanoma
SK-MEL-28 melanoma = test system: SK-MEL-28 melanoma
SK-MEL-5 melanoma = test system: SK-MEL-5 melanoma
SK-OV-3 ovarian = test system: SK-OV-3 ovarian
SN12C renal = test system: SN12C renal
SNB-19 CNS = test system: SNB-19 CNS
SNB-75 CNS = test system: SNB-75 CNS
SR leukemia = test system: SR leukemia
SW-620 colon = test system: SW-620 colon
T-47D breast = test system: T-47D breast
TK-10 renal = test system: TK-10 renal
U251 CNS = test system: U251 CNS
UACC-257 melanoma = test system: UACC-257 melanoma
UACC-62 melanoma = test system: UACC-62 melanoma
UO-31 renal = test system: UO-31 renal
NCI-H23 lung = test system: NCI-H23 lung

## CC(=O)N(O)CCCCCNC(=O)CCC(=O)N(O)CCCCCNC(=O)CCC(=O)N(O)CCCCCN(CCCCCCCCCC[P+](c1ccccc1)(c1ccccc1)c1ccccc1)CCCCCCCCCC[P+](c1ccccc1)(c1ccccc1)c1ccccc1
786-0 renal
  GI50: 7.1 µM
  TGI: 26.6 µM
A498 renal
  GI50: 18.9 µM
  TGI: 81.2 µM
A549 NSCLC
  GI50: 3.47 µM
  TGI: > 100 µM
ACHN renal
  GI50: 16.1 µM
  TGI: 69.9 µM
BT-549 breast
  GI50: 2.15 µM
  TGI: 9 µM
CAKI-1 renal
  GI50: 10.8 µM
  TGI: 24.4 µM
CCRF-CEM leukemia
  GI50: 2.5 µM
  TGI: 23.4 µM
COLO 205 colon
  GI50: 1.58 µM
  TGI: 3.55 µM
DU-145 prostate
  GI50: 5.21 µM
  TGI: 25.4 µM
EKVX NSCLC
  GI50: 1.35 µM
  TGI: 13 µM
HCC-2998 colon
  GI50: 3.45 µM
  TGI: 13.9 µM
HCT-116 colon
  GI50: 2.93 µM
  TGI: 23.8 µM
HCT-15 colon
  GI50: 14.6 µM
  TGI: 43.9 µM
HL-60(TB) leukemia
  GI50: 2.04 µM
  TGI: 6.01 µM
HOP-62 NSCLC
  GI50: 3.46 µM
  TGI: 16.1 µM
HOP-92 NSCLC
  GI50: 1.49 µM
  TGI: 6.82 µM
HS 578T breast
  GI50: 3.77 µM
  TGI: 30.8 µM
HT29 colon
  GI50: 2.84 µM
  TGI: 11.4 µM
IGROV1 ovarian
  GI50: 2.83 µM
  TGI: 16.8 µM
K-562 leukemia
  GI50: 1.47 µM
  TGI: 15.4 µM
KM12 colon
  GI50: 3.43 µM
  TGI: 21.1 µM
LOX IMVI melanoma
  GI50: 3.21 µM
  TGI: 10.2 µM
M14 melanoma
  GI50: 4.11 µM
  TGI: 21.9 µM
MALME-3M melanoma
  GI50: 4.11 µM
  TGI: 20.3 µM
MCF7 breast
  GI50: 2.29 µM
  TGI: 10.8 µM
MDA-MB-231 breast
  GI50: 4.13 µM
  TGI: 19.6 µM
MDA-MB-435
  GI50: 2.76 µM
  TGI: 11.3 µM
MOLT-4 leukemia
  GI50: 3.52 µM
  TGI: 18.9 µM
NCI-H226 lung
  GI50: 5.02 µM
  TGI: 23.9 µM
NCI-H460 lung
  GI50: 2.38 µM
  TGI: 11.5 µM
NCI-H522 lung
  GI50: 2.52 µM
  TGI: 10.7 µM
NCI/ADR-RES ovarian
  GI50: 31.3 µM
  TGI: > 100 µM
OVCAR-3 ovarian
  GI50: 4.22 µM
  TGI: 23.2 µM
OVCAR-4 ovarian
  GI50: 2.73 µM
  TGI: 17.5 µM
OVCAR-5 ovarian
  GI50: 3.46 µM
  TGI: 15.5 µM
OVCAR-8 ovarian
  GI50: 3.07 µM
  TGI: 14.8 µM
PC-3 prostate
  GI50: 2.95 µM
  TGI: 13.4 µM
RPMI-8226 leukemia
  GI50: 2.12 µM
  TGI: 9.63 µM
RXF 393 renal
  GI50: 3.3 µM
  TGI: 14.5 µM
SF-268 CNS
  GI50: 4.6 µM
  TGI: 26.4 µM
SF-295 CNS
  GI50: 2.99 µM
  TGI: 14.1 µM
SF-539 CNS
  GI50: 2.8 µM
  TGI: 10.4 µM
SK-MEL-2 melanoma
  GI50: 2.61 µM
  TGI: 7.86 µM
SK-MEL-28 melanoma
  GI50: 3.62 µM
  TGI: 18.3 µM
SK-MEL-5 melanoma
  GI50: 3.65 µM
  TGI: 15.8 µM
SK-OV-3 ovarian
  GI50: 2.3 µM
  TGI: 6.15 µM
SN12C renal
  GI50: 2.88 µM
  TGI: 11.1 µM
SNB-19 CNS
  GI50: 3.09 µM
  TGI: 14.1 µM
SNB-75 CNS
  GI50: 2.69 µM
  TGI: 11.4 µM
SR leukemia
  GI50: 2.71 µM
  TGI: 11.2 µM
SW-620 colon
  GI50: 4.18 µM
  TGI: 16.5 µM
T-47D breast
  GI50: 1.78 µM
  TGI: 8.85 µM
TK-10 renal
  GI50: 9 µM
  TGI: 34.2 µM
U251 CNS
  GI50: 2 µM
  TGI: 13 µM
UACC-257 melanoma
  GI50: 2.66 µM
  TGI: 10 µM
UACC-62 melanoma
  GI50: 3.35 µM
  TGI: 15.3 µM
UO-31 renal
  GI50: 16 µM
  TGI: > 100 µM

## O=C(Nc1ccccc1)Nc1nc2ccc([N+](=O)[O-])cc2s1
786-0 renal
  GI50: 2.41 µM
  TGI: 9.94 µM
A498 renal
  GI50: 0.254 µM
  TGI: 1.71 µM
A549 NSCLC
  GI50: 2.53 µM
  TGI: 14.4 µM
ACHN renal
  GI50: 2.04 µM
  TGI: 10.2 µM
BT-549 breast
  GI50: 2.02 µM
  TGI: 6.5 µM
CAKI-1 renal
  GI50: 1.62 µM
  TGI: 7.91 µM
CCRF-CEM leukemia
  GI50: 1.29 µM
  TGI: 13.1 µM
COLO 205 colon
  GI50: 2.05 µM
  TGI: 4.38 µM
DU-145 prostate
  GI50: 3.33 µM
  TGI: 16.7 µM
EKVX NSCLC
  GI50: 1.95 µM
  TGI: 11.9 µM
HCC-2998 colon
  GI50: 1.38 µM
  TGI: 9.09 µM
HCT-116 colon
  GI50: 2.22 µM
  TGI: 10.1 µM
HCT-15 colon
  GI50: 1.65 µM
  TGI: 10.5 µM
HL-60(TB) leukemia
  GI50: 1.46 µM
  TGI: 3.57 µM
HOP-62 NSCLC
  GI50: 2.93 µM
  TGI: 11.5 µM
HOP-92 NSCLC
  GI50: 0.324 µM
  TGI: 2.61 µM
HS 578T breast
  GI50: 2.72 µM
  TGI: 12.4 µM
HT29 colon
  GI50: 3.46 µM
  TGI: 12.1 µM
IGROV1 ovarian
  GI50: 2.49 µM
  TGI: 14.9 µM
K-562 leukemia
  GI50: 1.47 µM
  TGI: 10.8 µM
KM12 colon
  GI50: 1.77 µM
  TGI: 10.6 µM
LOX IMVI melanoma
  GI50: 1.22 µM
  TGI: 3.68 µM
M14 melanoma
  GI50: 2.64 µM
  TGI: 8.48 µM
MALME-3M melanoma
  GI50: 0.751 µM
  TGI: 7.71 µM
MCF7 breast
  GI50: 1.42 µM
  TGI: 10.8 µM
MDA-MB-231 breast
  GI50: 1.82 µM
  TGI: 4.56 µM
MDA-MB-435
  GI50: 2.16 µM
  TGI: 9.74 µM
MOLT-4 leukemia
  GI50: 1.96 µM
  TGI: 7.14 µM
NCI-H226 lung
  GI50: 1.37 µM
  TGI: 4.3 µM
NCI-H23 lung
  GI50: 0.649 µM
  TGI: 3.57 µM
NCI-H460 lung
  GI50: 2.06 µM
  TGI: 10.5 µM
NCI/ADR-RES ovarian
  GI50: 1.79 µM
  TGI: 8.31 µM
OVCAR-3 ovarian
  GI50: 1.91 µM
  TGI: 11.6 µM
OVCAR-4 ovarian
  GI50: 1.31 µM
  TGI: 12.4 µM
OVCAR-5 ovarian
  GI50: 4.33 µM
  TGI: 17.4 µM
OVCAR-8 ovarian
  GI50: 2.8 µM
  TGI: 14.5 µM
PC-3 prostate
  GI50: 1.69 µM
  TGI: 9.89 µM
RPMI-8226 leukemia
  GI50: 0.69 µM
  TGI: 3.47 µM
RXF 393 renal
  GI50: 0.548 µM
  TGI: 3.02 µM
SF-268 CNS
  GI50: 2.65 µM
  TGI: 13.3 µM
SF-295 CNS
  GI50: 1.23 µM
  TGI: 3.11 µM
SF-539 CNS
  GI50: 2.12 µM
  TGI: 10.4 µM
SK-MEL-2 melanoma
  GI50: 1.69 µM
  TGI: 5.15 µM
SK-MEL-28 melanoma
  GI50: 2.45 µM
  TGI: 12.1 µM
SK-MEL-5 melanoma
  GI50: 0.471 µM
  TGI: 1.75 µM
SK-OV-3 ovarian
  GI50: 2.33 µM
  TGI: 9.58 µM
SN12C renal
  GI50: 1.58 µM
  TGI: 6.79 µM
SNB-19 CNS
  GI50: 1.74 µM
  TGI: 12.9 µM
SNB-75 CNS
  GI50: 1.87 µM
  TGI: 5.74 µM
SR leukemia
  GI50: 0.746 µM
  TGI: 4.17 µM
SW-620 colon
  GI50: 2.97 µM
  TGI: 12.7 µM
T-47D breast
  GI50: 0.533 µM
  TGI: 9.77 µM
TK-10 renal
  GI50: 2.83 µM
  TGI: 10.7 µM
U251 CNS
  GI50: 1.97 µM
  TGI: 12.9 µM
UACC-257 melanoma
  GI50: 1.49 µM
  TGI: 7.7 µM
UACC-62 melanoma
  GI50: 0.86 µM
  TGI: 8.13 µM
UO-31 renal
  GI50: 1.56 µM
  TGI: 11.5 µM

From PubChem BioAssay (NCI)
